# Measurements reported in publication PMC6199744, “Development of Chemical Proteomics for the Folateome and Analysis of the Kinetoplastid Folateome” (ACS Infectious Diseases, 2018).
# Where two headings read alike, the source gives them in different places.
# Assays:
# Format in all cases: binding
# [1] = target: T1, HeLa cell extract proteins (Homo sapiens, UniProt O60664)
# T1 construct: endogenous in cells; host or cells: HeLa cell extract
# T1 sequence (O60664 1-434): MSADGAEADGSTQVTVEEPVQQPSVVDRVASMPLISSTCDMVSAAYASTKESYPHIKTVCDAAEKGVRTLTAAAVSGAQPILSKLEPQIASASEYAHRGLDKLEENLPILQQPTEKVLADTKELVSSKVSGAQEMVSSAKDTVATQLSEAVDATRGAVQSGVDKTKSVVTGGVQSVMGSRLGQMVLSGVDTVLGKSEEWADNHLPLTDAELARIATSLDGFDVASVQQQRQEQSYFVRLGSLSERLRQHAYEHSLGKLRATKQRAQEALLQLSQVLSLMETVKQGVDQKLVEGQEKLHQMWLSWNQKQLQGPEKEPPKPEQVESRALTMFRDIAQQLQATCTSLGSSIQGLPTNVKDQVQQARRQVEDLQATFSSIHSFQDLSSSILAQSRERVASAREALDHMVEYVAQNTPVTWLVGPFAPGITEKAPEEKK
# [2] = target: T2, HeLa cell extract proteins (Homo sapiens, UniProt P53621)
# T2 construct: endogenous in cells; host or cells: HeLa cell extract
# T2 sequence (P53621 1-1224): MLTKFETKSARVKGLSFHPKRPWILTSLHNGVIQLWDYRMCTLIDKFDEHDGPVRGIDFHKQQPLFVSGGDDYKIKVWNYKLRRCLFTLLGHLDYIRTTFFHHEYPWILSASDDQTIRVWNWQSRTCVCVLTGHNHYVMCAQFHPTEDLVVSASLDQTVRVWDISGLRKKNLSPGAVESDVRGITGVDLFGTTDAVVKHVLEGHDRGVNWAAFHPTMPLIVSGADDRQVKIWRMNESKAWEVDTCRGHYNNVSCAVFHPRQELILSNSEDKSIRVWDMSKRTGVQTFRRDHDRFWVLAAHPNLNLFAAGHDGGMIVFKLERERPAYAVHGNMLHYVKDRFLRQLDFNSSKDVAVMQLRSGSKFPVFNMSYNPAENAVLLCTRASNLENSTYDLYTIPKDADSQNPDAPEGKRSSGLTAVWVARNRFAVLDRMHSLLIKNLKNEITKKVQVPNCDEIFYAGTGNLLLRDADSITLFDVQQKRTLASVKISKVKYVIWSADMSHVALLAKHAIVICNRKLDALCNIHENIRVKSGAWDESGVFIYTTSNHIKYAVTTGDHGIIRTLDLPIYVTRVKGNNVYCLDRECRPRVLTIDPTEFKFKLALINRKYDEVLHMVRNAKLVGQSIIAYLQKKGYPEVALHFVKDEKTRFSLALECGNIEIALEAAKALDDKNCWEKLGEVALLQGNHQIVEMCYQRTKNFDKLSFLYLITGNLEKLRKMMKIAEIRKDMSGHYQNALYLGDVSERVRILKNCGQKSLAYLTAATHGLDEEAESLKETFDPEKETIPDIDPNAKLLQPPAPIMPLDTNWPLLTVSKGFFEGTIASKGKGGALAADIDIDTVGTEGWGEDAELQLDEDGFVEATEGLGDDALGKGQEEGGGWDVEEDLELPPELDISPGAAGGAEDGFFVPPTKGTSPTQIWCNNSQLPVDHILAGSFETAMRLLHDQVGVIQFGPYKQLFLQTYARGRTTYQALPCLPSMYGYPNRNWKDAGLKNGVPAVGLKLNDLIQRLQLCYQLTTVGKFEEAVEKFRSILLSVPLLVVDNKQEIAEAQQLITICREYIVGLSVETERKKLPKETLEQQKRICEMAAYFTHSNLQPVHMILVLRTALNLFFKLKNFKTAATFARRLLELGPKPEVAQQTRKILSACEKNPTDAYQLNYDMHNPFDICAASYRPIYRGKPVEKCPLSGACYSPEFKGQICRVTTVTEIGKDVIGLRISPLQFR
# [3] = target: T3, HeLa cell extract proteins (Homo sapiens, UniProt Q8N5P1)
# T3 construct: endogenous in cells; host or cells: HeLa cell extract
# T3 sequence (Q8N5P1 1-291): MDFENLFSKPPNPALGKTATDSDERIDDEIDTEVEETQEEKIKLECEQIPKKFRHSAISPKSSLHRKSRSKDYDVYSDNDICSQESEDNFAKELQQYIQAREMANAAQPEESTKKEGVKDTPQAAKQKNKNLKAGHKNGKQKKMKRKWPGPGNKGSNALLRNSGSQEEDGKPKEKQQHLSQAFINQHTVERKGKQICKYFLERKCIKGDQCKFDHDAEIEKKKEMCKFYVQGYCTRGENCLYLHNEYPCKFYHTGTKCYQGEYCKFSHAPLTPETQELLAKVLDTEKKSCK
# [4] = target: T4, HeLa cell extract proteins (Homo sapiens, UniProt Q7L8L6)
# T4 construct: endogenous in cells; host or cells: HeLa cell extract
# T4 sequence (Q7L8L6 28-764): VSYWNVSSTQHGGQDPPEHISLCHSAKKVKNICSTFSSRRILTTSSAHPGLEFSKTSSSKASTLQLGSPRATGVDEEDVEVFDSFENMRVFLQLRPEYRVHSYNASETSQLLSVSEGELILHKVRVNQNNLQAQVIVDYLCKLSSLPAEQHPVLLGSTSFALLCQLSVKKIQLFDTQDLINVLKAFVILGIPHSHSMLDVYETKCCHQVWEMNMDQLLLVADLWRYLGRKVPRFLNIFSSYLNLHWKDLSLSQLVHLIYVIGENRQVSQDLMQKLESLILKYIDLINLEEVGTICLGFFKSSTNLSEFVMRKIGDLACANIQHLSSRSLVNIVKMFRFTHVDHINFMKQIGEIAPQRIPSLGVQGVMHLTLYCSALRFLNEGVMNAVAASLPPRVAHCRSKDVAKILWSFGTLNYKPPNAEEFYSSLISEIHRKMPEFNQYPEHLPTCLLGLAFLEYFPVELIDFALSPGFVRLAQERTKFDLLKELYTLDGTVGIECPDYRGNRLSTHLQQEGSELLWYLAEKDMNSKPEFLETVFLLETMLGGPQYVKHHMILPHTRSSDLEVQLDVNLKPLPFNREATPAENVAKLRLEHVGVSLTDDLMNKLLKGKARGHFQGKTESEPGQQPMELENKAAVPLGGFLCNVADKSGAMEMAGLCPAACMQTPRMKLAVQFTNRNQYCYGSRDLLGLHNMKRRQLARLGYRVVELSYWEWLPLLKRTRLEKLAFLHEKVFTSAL
# [5] = HeLa, protein ZC3H8 (ZINC FINGER CCCH DOMAIN-CONTAINING PROTEIN 8)
Compound,"fold changes relative to vehicle control ([1]; protein M6PRBP1, HeLa)","fold changes relative to vehicle control ([2]; protein COPA, HeLa)","fold changes relative to vehicle control ([3]; protein ZC3H8, HeLa)","fold changes relative to vehicle control ([4]; captured protein FASTKD5, HeLa)","fold changes relative to vehicle control [3, 5]","fold changes relative to vehicle control ([4]; HeLa, protein FASTKD5)",fold changes relative to vehicle control [1],fold changes relative to vehicle control [2],fold changes relative to vehicle control [3],fold changes relative to vehicle control [4]
Nc1nc2cccc(-c3ccccc3)c2n1Cc1ccc(Cl)c(Cl)c1 [compound 3],0.94,0.93,0.99,1.06,–,–,–,–,–,–
NCCOCCOCC(=O)Nc1nc2ncc(CNc3ccc(C(=O)NC(CCC(=O)O)C(=O)O)cc3)nc2c(=O)[nH]1 (stereo not shown) [compound 6],1.27,1,–,–,1.04,0.88,–,–,–,–
"Nc1nc2[nH]cc(CCc3ccc(C(=O)N[C@@H](CCC(=O)O)C(=O)O)cc3)c2c(=O)[nH]1 [PTX, pemetrexed]",–,–,–,–,–,–,1.06,0.82,1.51,0.84
"Nc1nc2c(c(=O)[nH]1)N(C=O)C(CNc1ccc(C(=O)N[C@@H](CCC(=O)O)C(=O)O)cc1)CN2 (stereo partly shown) [LEU, leucovorin]",1,0.81,–,–,1.22,0.87,–,–,–,–
CCCCCCOc1ccc(Cc2cnc(N)nc2N)cc1 [compound 1],1.23,1.07,1.19,1.07,–,–,–,–,–,–
NCCCNc1ccc(C(=O)NC(CCC(=O)O)C(=O)O)cc1 (stereo not shown) [compound 7],0.93,0.89,–,–,1,0.97,–,–,–,–
CCCCCCOc1cccc(Cc2cnc(N)nc2N)c1 [compound 2],1.68,1.31,0.96,0.94,–,–,–,–,–,–
